# Source: patent US20230181580A1, “TREATMENT OF PROLIFERATIVE DISEASES OF THE CNS” (AUCENTRA THERAPEUTICS PTY LTD, priority 2020, published 2023)
# What was measured:
# T98G = test: MTT proliferation assay, glioblastoma; format: cell-based; conditions: Homo sapiens, 72 h, read-out: Antiproliferative activity GI50 T98G
# Method: (§1) All three GBM cell lines used in this example, namely U87, U251 and T98G, were cultured in Eagle's Minimum Essential Medium (EMEM) with 10% fetal bovine serum in 75 cm^2 flasks at 37° C. and 5% CO2. All cell lines were confirmed to be mycoplasma-free prior to any experiment setup.
# (§2) Representative compounds from Example 1, were subjected to standard MTT (3-(4,5-dimethylthiazol-2-yl)-2,5-diphenyltetrazolium bromide) and resazurin assays on solid tumour cell lines (including GBM cell lines) and leukemia cell lines, respectively, as previously reported (Wang S et al., J Med Chem 47:1662-1675, 2004; and Diab S. et al. CheMedChem 9:962-972, 2014).
# U251 = test: MTT proliferation assay, glioblastoma; format: cell-based; conditions: Homo sapiens, U-251, 72 h, read-out: Antiproliferative activity GI50 U251
# Method: as §1, §2
# U87 = test: MTT proliferation assay, glioblastoma; format: cell-based; conditions: Homo sapiens, U-87 MG, 72 h, read-out: Antiproliferative activity GI50 U87
# Method: as §1, §2
# U87 GBM cells = test: Subcutaneous U87 GBM xenograft, single agents; format: in vivo
# Text: Compound 1 and compound 2 were also investigated for in vivo antitumour activity in subcutaneous xenograft models. Briefly, U87 GBM cells were harvested and resuspended in a 1:1 mixture of serum-free media and matrigel, and 5×10^6 cells injected subcutaneously into the rear flank of 5-6-week-old CD1 nu/nu female mice. When the mean tumour volume reached 150-200 mm^3, animals were randomised to treatment groups (n=10 per group) and treated orally with vehicle (0.5% carboxymethyl cellulose in water), compound 1 or compound 2 daily for 21 days with the doses shown in FIGS. 5A and 5B. Mice were observed daily for signs of toxicity and weight loss, and tumour volume measured every other day.
# LNCap = test: MTT proliferation assay, prostate; format: cell-based; conditions: Homo sapiens, 72 h, read-out: Antiproliferative activity GI50 LNCap
# Text: as §2
# [1] = tested on: phosphorylated Rb proteins (pRb Ser780, pRbSer795, pRb807/811); test: Western blot analysis of Rb phosphorylation; format: cell-based; conditions: 24 h treatment, FIG. 3A
# Method: Cells were seeded at a density of 3×10^5 with 10 mL fresh medium on a sterile culture dish and incubated at 37° C. 5% CO2 for overnight prior to compound treatment. After 24 h, cells were harvested with PBS, centrifuged at 300×g for 5 mins, and lysed with 100 μL lysis buffer (25 mM 4-(2-hydroxyethyl)-1-piperazineethanesulphonic acid, 300 mM sodium chloride, 1.5 mM magnesium chloride, 0.5% sodium deoxycholate, 20 mM p-glycerophosphate, 1% Triton X-100, 0.1% sodium dodecyl sulphate, 0.2 mM EDTA, 0.5 mM dithiothreitol, 1 mM sodium orthovanadate and 25× protease inhibitor cocktail). Protein lysate was collected after 10 mins of maximum speed centrifugation at 4° C. The protein concentration of cell lysates was determined through performing a BSA standard curve using the Bio-Rad DC protein assay kit II (Bio-Rad, Sydney, NSW, Australia) according to the manufacturer's protocol. 30 μg protein was measured, mixed with 3× loading buffer and denatured at 95° C. for 5 mins using T100 thermal cycler (Bio-Rad). Molecular mass of each sample was then separated by gel electrophoresis on a 4-20% polyacrylamide gel at 120V for 1 h. The resolved proteins were transferred onto nitrocellulose membranes and blocked with 5% skimmed milk in Tris-buffered saline and Tween 20 (TBST) for 1 h at room temperature. […] Band intensity was determined using a ChemiDoc™ multiplexing imaging system (Bio-Rad). […]
# [2] = tested on: GBM cell lines (U87, U251, T98G); test: In vitro tumorigenicity (colony formation) assay; format: cell-based; conditions: 10 days, crystal violet staining, FIG. 3B
# Method: as §1
# A density of 200 to 400 cells/well was seeded in a twelve-well plate and incubated for overnight prior to compound treatment. […] After 10 days, cells were washed with PBS, fixed and stained with crystal violet staining solution (0.05% crystal violet, 1% formaldehyde, 1% PBS, 1% ethanol); the results are shown in FIG. 3B.
# Colo205 = test: MTT proliferation assay, colorectal; format: cell-based; conditions: Homo sapiens, COLO 205, 72 h, read-out: Antiproliferative activity GI50 Colo205
# Text: as §2
# MB453 = test: MTT proliferation assay, breast; format: cell-based; conditions: 72 h, read-out: Antiproliferative activity GI50 MB453
# Text: as §2
# MV4-11 = test: Resazurin proliferation assay, leukaemia cell line; format: cell-based; conditions: Homo sapiens, 72 h, read-out: Antiproliferative activity GI50 MV4-11
# Text: as §2
# [3] = tested on: GBM patient-derived G4T cells; test: Orthotopic GBM patient-derived G4T xenograft; format: in vivo, NSG mice; conditions: single agent or with TMZ; p<0.001
# Method: In a separate study, NSG mice (n=8) orthotopically engrafted with GBM patient-derived G4T cells were administered with vehicle, compound 1, TMZ, and co-treatment of compound 1 and TMZ, respectively, as shown in FIG. 6B. The disease burden of each of the treatment groups was measured by bioluminescent whole-body imaging.
# H460 = test: MTT proliferation assay, lung; format: cell-based; conditions: Homo sapiens, NCI-H460, 72 h, read-out: Antiproliferative activity GI50 H460
# Text: as §2
# A2780 = test: MTT proliferation assay, ovarian; format: cell-based; conditions: Homo sapiens, 72 h, read-out: Antiproliferative activity GI50 A2780
# Text: as §2
smiles,measurement,setting,value
"CNc1nc(C)c(-c2nc(Nc3ccc(N4CCC(N(C)C)CC4)cn3)ncc2F)s1 [Compound 1, 5-(2-((5-(4-(dimethylamino)piperidin-1-yl)pyridin-2-yl)amino)-5-fluoropyrimidin-4-yl)-N,4-dimethylthiazol-2-amine]",GI50,T98G,2960 nM
same,GI50,U251,5520 nM
same,GI50,U87,4460 nM
same,T/C,"U87 GBM cells; day 21, oral daily for 21 days, vs vehicle, p<0.001",310%
same,tumour growth compared to vehicle treatment,U87 GBM cells; oral daily for 21 days,markedly reduced tumour growth
same,toxicity,"U87 GBM cells; oral daily for 21 days, observed daily for signs of toxicity and weight loss",without any overt toxicity
same,GI50,LNCap,620 nM
same,level of phosphorylated Rb proteins,[1],reduces the level of phosphorylated Rb proteins
same,growth and proliferation (colony formation),[2],inhibits the growth and proliferation of all three GBM cell lines
same,GI50,Colo205,2320 nM
same,GI50,MB453,330 nM
same,GI50,MV4-11,110 nM
same,inhibition of tumour growth (bioluminescent imaging),[3],significant inhibition of tumour growth either as a single agent or in combination with TMZ
same,GI50,H460,3280 nM
same,GI50,A2780,70 nM
